According to patent US11149049B2, “Substituted nucleosides, nucleotides and analogs thereof” (JANSSEN BIOPHARMA, INC., priority 2017, dated 2021):
Read-outs that look alike come from different tables or passages of the source.

How the values were obtained:
in vitro [1] = details: human
[2] = Cytotoxicity in the DENV assay, uninfected parallel cultures; details: human
Ebola minigenome = test: microbe, parasite or virus in culture; format: cell-based; details: Zaire ebolavirus, HEp-2, 48 h, read-out: EBOV EC50, HEp-2 cells, Ebola minigenome, 48 hours
RSV replicon = test: microbe, parasite or virus in culture; format: cell-based; details: human respiratory syncytial virus, 168 h, read-out: RSV EC50, HeLa-derived RSV replicon cells, 7 days, luciferase
Human rhinovirus 1B = test: Rhinovirus antiviral assay (HRV1B); format: cell-based; details: Rhinovirus A, 96 h
[3] = Cytotoxicity in the coronavirus assay, uninfected parallel cultures; format: cell-based; details: human, read-out: OC43CoV CC50
Protocol: (§1) The human β-coronavirus strain OC43 was purchased from ATCC (Manassas, Va.; item numbers VR-1558 and VR-740, respectively). 24 hours prior to dosing, HeLa human cervix epithelial cells (ATCC, CCL-2) or MRC-5 human lung fibroblast (ATCC, CCL-171) were plated in 96 well plates at a density of 1.5×10^5/ml in DMEM medium supplemented with 10% fetal bovine serum, 1% HEPES buffer, 1% Penicillin/Streptomycin and 1% non-essential amino acids (all Mediatech, Manassas, Va.). At the day of infection, serially diluted compounds were added to cells and incubated for 4 hours. After the end of the 4 hour pre-incubation period, cells were infected with either coronavirus strain OC43 or 229E. The virus inoculum was selected to cause 80-90% cytopathic effect. Infected cells were incubated for five days at 37° C., 5% CO2. To develop the assay, 100 μl media was replaced with 100 μl CellTiter-Glo® reagent (Promega, Madison, Wis.), and incubated for 10 min at room temperature. Luminescence was measured on a Victor X3 multi-label plate reader. Potential compound cytotoxicity was determined using uninfected parallel cultures.

[4] = test system: Dengue virus type 2 NG-C or Dengue virus type 4 H241; test: Dengue antiviral assay (DENV); format: cell-based; details: Huh-7.5 cells, five to six days, CellTiter-Glo
Protocol: The Dengue virus type 2 strain New Guniea C (NG-C) and the Dengue virus type 4 strain H241 were purchased from ATCC (Manassas, Va.; item numbers VR-1584 and VR-1490, respectively). 24 hours prior to dosing, Huh-7.5 cells were plated in 96 well plates at a density of 1.5×10^5/ml in DMEM medium supplemented with 10% fetal bovine serum, 1% HEPES buffer, 1% Penicillin/Streptomycin and 1% non-essential amino acids (all Mediatech, Manassas, Va.). At the day of infection, serially diluted compounds were added to cells and incubated for 4 hours. After the end of the 4 hour pre-incubation period, cells were infected with either Dengue virus type 2 NG-C or Dengue virus type 4 H241. The virus inoculum was selected to cause 80-90% cytopathic effect in five to six days. Infected cells were incubated for five (NG-C) to six (H241) days at 37° C., 5% CO2. To develop the assay, 100 μl media was replaced with 100 μl CellTiter-Glo® reagent (Promega, Madison, Wis.), and incubated for 10 min at room temperature. Luminescence was measured on a Victor X3 multi-label plate reader. Potential compound cytotoxicity was determined using uninfected parallel cultures.

in vitro [5] = details: human; remark: listed apart in the source
[6] = test system: human β-coronavirus strain OC43; test: Coronavirus antiviral assay (OC43); format: cell-based; details: Betacoronavirus 1, OC43, 120 h; HeLa or MRC-5 cells, five days, CellTiter-Glo; read-out: OC43CoV EC50
Protocol: as §1

[7] = Cell viability (CC50) in the RSV replicon assay; details: human, HeLa-derived cells containing the stable RSV replicon, CellTiter-Glo
[8] = Toxicity (CC50) in the HRV1B assay; details: human
Huh-7.5 cells = test: Cytotoxicity in the DENV assay, uninfected parallel cultures; details: read-out: DENV CC50; uninfected Huh-7.5 parallel cultures

Row | Structure (SMILES) | CC50 (in vitro [1]) | CC50 [2] | EC50 (Ebola minigenome) | EC50 (RSV replicon) | EC50 (Human rhinovirus 1B; HeLa-OHIO cells, 4 d, CellTiter-Glo, read-out: HRV 1B EC50) | CC50 at 5 days [3] | EC50 ([4]; Dengue virus, Huh7.5, 144 h) | CC50 at 4 d (in vitro [5]) | EC50 [6] | CC50 at 7 days [7] | CC50 at 4 d [8] | CC50 (Huh-7.5 cells) | CC50 ([2]; DENV CC50, uninfected Huh-7.5 parallel cultures) | EC50 (Human rhinovirus 1B; read-out: HRV 1B EC50, HeLa-OHIO cells, 4 d, CellTiter-Glo) | EC50 [4]
1 | CCC(CC)COC(=O)[C@@H](C)NP(=O)(OC[C@H]1O[C@@](C#N)(c2ccc3c(N)ncnn23)[C@H](O)[C@@H]1O)Oc1ccccc1 (stereo partly drawn) [Compound C1, reference compound] | 51000 nM | 22000 nM | 800 nM | 20 nM | 120 nM | 69000 nM | 130 nM | 6000 nM | 65 nM | – | – | – | – | – | –
2 | CC(C)OC(=O)[C@H](C)NP(=O)(OC[C@@]1(F)O[C@@](C#N)(c2ccc3c(N)ncnn23)[C@H](O)[C@@H]1O)Oc1ccccc1 (stereo partly drawn) [Compound 6, Isopropyl ((((2S,3S,4R,5R)-5-(4-aminopyrrolo[2,1-f][1,2,4]triazin-7-yl)-5-cyano-2-fluoro-3,4-dihydroxytetrahydrofuran-2-yl)methoxy)(phenoxy)phosphoryl)-L-alaninate] | > 100000 nM | – | 2500 nM | 20 nM | – | > 100000 nM | 250 nM | – | 1700 nM | 43000 nM | > 100000 nM | 69000 nM | 78000 nM | 4100 nM | 330 nM
